Patent publication US20170258924A1, “Ester of a Phospholipid With Conjugated Linoleic Acid for the Treatment of Psychiatric Disorders With Neuroinflammatory and Neurodegenerative Basis” (UNIVERSITA' DEGLI STUDI DI CAGLIARI, priority 2014, published 2017)

Assays:
rat brain slices = assay: ex vivo incubation of rat brain slices, levels of PEA and OEA; format: cell-based; conditions: rat brain slices incubated ex vivo for 15, 30 or 60 min; FIG. 1
From the text: The values, mean and DS, are expressed as molar % of the total fatty acids. Different letters indicate significant differences (p<0.05); the One-way ANOVA statistical analysis was used, with Tukey test for post-hoc analysis. Similar results were obtained by using pure (99%) c9,t11 isomer.
(§1) The methods employed for the analysis of the levels of conjugated linoleic acid, PEA and OEA in vivo and in vitro are described in detail in (Melis et al. 2001) and in (Piscitelli et al. 2011), respectively.
On the contrary, WY14643 (WY), a synthetic agonist of PPAR alpha used as a comparison since it is an inductor of PPAR alpha, increases the levels of PEA and OEA by about 3-4 times (FIG. 1B).

TNF alpha in microglia = TNF alpha in microglia in vitro; format: cell-based
From the text: The PEA and OEA increase, since it sustains PPAR alpha activation, is crucial for the physiologic response to neuroinflammatory events, in addition to preserving the homeostasis of the dopaminergic system. In fact, CLA can reduce in vitro the levels of TNF alpha in both astrocytes and microglia.

frontal cortex of mice = assay: in vivo administration to mice, levels of OEA in the frontal cortex; conditions: acute administration 12 hours prior to sacrifice, FIG. 2
From the text: The values, mean and DS, are expressed as pmoles/g tissue. Different letters indicate significant differences (p<0.05); the One-way ANOVA statistical analysis was used, with Tukey test for post-hoc analysis.
as §1
(§2) Since astrocytes are involved in neuroinflammation, the action of CLA (80% c9,t11 isomer) was also verified in cultures of astrocytes after having induced neuroinflammation with LPS. Oleic acid was used as a control.

TNF alpha in astrocytes = assay: TNF alpha in cultures of astrocytes after induced neuroinflammation with LPS; format: cell-based; conditions: treatment then LPS, oleic acid as control, p<0.05, FIG. 3
From the text: as §2

Compound	increase of the levels of OEA (rat brain slices)	increase of the levels of PEA (rat brain slices)	levels of TNF alpha in microglia (TNF alpha in microglia)	levels of OEA in the frontal cortex (frontal cortex of mice)	TNF alpha in cultured astrocytes (TNF alpha in astrocytes)	TNF alpha in cultured astrocytes (TNF alpha in astrocytes; listed as CLA)
Cc1cccc(Nc2cc(Cl)nc(SCC(=O)O)n2)c1C [WY14643, reference compound]	3-4 times	3-4 times	–	–	–	–
conjugated linoleic acid [CLA (80% c9,t11 isomer)]	about 5 times	about 5 times	reduce	significantly increases	significant decrease	reduce
